# From patent EP4134440B1, “MALVA SYLVESTRIS FERMENTATION PRODUCT AND USE THEREOF” (Kabushiki Kaisha Yakult Honsha, priority 2020, dated 2021)
# How the values were obtained:
# [1] = system: B16 mouse melanoma cells (B16-F1); experiment: Melanin production suppression test: intracellular melanin production level; format: cell-based; details: 72 h, three days in 0.5 mM theophylline-containing medium, concentration expressed as evaporation residue concentration
# Description: (§1) As cells, B16 mouse melanoma cells (B16-F1) were used. Cells passaged 5-10 times, counting from the time of purchase, were used in the test. As medium, DMEM containing 5 or 10% FBS was used.
# A quantity of 500 µL of DMEM medium containing 5% FBS was placed in a 24-well plate, and B16 melanoma cells were seeded 1.4 × 10^4 cells/well ([…]), then cultured for 24 hours at 37°C under 5% CO2. Thereafter, the medium was replaced with 1 mL of 0.5 mM theophylline-containing medium containing a test sample, and the cells were cultured for another three days. […]
# After culture was completed, the cells were washed twice with PBS(-) and fixed with 99.5% ethanol. […] After allowing to cool, the entire amount of cell lysate was transferred to a 96-well plate, and the 405 nm absorbance was measured. The intracellular melanin production level per culture well was determined from a calibration curve that used synthetic melanin, and the intracellular melanin production level relative to the control was determined by the following formula. […]
# The melanin production-suppressing activity of the obtained fermentation supernatants or unfermented plant extract was measured using B16 melanoma cells in the same way as in Test Example 2. […]
# [2] = system: B16 mouse melanoma cells (B16-F1); experiment: Melanin production suppression test: intracellular protein level (BCA method); format: cell-based; details: 72 h, three days in 0.5 mM theophylline-containing medium, concentration as evaporation residue concentration, * = estimated value
# Description: as §1
# A quantity of 500 µL of DMEM medium containing 5% FBS was placed in a 24-well plate, and B16 melanoma cells were seeded 1.4 × 10^4 cells/well (7.5 × 10^4 cells/cm^2), then cultured for 24 hours at 37°C under 5% CO2. Thereafter, the medium was replaced with 1 mL of 0.5 mM theophylline-containing medium containing a test sample, and the cells were cultured for another three days.
# As the test sample, a fermentation supernatant by each lactic acid bacterium or unfermented Malva sylvestris extract was added to make a blend ratio (volume ratio) of 0.5%, 1%, 2%, or 5% in the medium, taking the undiluted sample solution as 100%. As a control, RO water was added to the medium in the same blend ratios instead of the fermentation supernatant by each lactic acid bacterium or unfermented Malva sylvestris extract. […]
# The cell lysate was diluted ten-fold by ultrapure water (milli-Q water) and assayed by the BCA method (Pierce BCA Protein assay kit) using BSA as the reference protein, and the intracellular protein level relative to the control was determined using the following formula. […]
smiles,measurement,setting,value
"OC[C@H]1O[C@@H](Oc2ccc(O)cc2)[C@H](O)[C@@H](O)[C@@H]1O [compound 15, Arbutin]",IC50,[1],340 µg/mL
same,IC50,[2],1200 µg/mL
